Data from ChEMBL document CHEMBL4482310, “Inhibitors of grb2-associated binding protein 1 (gab1) and methods of treating cancer using the same” (2017).

How the values were obtained:
[1] = biological target: T1, GRB2-associated-binding protein 1 (Homo sapiens, UniProt Q13480); experiment: Binding affinity to recombinant human GAB1 PH domain expressed in Escherichia coli BL21 (DE3) by surface plasmon resonance assay
T1 sequence (Q13480 whole entry): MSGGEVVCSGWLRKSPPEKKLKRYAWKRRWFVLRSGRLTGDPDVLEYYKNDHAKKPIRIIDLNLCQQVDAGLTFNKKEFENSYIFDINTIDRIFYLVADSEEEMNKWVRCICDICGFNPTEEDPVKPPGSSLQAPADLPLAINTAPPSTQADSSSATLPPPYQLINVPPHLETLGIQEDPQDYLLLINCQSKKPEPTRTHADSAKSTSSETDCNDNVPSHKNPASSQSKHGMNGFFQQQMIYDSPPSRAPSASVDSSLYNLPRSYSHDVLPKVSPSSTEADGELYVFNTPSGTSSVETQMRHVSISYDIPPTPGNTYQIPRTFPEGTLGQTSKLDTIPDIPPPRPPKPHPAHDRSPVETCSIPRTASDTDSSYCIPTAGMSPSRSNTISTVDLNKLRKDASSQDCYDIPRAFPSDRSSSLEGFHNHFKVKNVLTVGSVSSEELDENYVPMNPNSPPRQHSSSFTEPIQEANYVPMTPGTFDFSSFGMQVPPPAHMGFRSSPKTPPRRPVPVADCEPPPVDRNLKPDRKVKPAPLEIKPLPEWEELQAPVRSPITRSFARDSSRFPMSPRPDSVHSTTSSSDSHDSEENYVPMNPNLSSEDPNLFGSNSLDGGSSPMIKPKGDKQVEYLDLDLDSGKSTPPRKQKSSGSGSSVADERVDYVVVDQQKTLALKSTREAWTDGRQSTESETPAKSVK

[2] = biological target: T2, Insulin receptor substrate 1 (Homo sapiens) (UniProt P35568); experiment: Inhibition of HGF-induced IRS1 phosphorylation in human T47D cells assessed as pSer312 IRS1/total-IRS1 ratio level at 20 uM pre-incubated for 4 hrs before stimulation with HGF for 20 mins (reference value: 100 +/- 0.02%); format: cell-based; parameters: scale not given: the % may be the effect or the level left
T2 sequence (whole entry): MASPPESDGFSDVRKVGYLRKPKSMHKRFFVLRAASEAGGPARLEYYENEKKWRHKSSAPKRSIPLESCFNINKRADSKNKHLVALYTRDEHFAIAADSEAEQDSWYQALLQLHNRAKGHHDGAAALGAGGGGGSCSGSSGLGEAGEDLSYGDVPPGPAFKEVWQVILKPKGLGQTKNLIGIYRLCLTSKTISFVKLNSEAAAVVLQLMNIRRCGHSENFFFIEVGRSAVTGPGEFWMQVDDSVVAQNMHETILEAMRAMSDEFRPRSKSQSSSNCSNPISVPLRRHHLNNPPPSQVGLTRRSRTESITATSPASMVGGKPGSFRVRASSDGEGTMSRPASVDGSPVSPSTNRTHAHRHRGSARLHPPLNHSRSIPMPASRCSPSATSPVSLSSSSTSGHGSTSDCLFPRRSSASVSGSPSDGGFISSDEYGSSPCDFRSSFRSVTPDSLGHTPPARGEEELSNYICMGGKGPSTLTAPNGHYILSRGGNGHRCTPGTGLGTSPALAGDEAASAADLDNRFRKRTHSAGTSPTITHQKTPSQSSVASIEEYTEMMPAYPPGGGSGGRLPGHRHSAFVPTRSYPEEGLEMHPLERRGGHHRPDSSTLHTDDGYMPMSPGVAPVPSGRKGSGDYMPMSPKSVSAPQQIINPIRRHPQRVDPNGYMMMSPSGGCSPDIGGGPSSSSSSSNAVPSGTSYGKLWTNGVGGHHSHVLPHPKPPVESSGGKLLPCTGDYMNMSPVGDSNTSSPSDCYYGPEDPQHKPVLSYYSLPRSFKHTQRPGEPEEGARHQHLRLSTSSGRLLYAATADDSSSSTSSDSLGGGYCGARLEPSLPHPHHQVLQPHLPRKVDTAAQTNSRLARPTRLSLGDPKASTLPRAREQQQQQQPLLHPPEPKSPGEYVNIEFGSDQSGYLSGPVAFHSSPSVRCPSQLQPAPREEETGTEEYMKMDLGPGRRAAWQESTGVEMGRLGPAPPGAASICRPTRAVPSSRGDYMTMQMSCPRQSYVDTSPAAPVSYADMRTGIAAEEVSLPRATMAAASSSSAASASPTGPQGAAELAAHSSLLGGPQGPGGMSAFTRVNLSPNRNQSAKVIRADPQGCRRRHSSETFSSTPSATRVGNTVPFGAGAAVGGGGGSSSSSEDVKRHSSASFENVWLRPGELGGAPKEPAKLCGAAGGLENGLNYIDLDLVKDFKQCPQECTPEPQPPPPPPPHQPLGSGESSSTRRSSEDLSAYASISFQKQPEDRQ

[3] = biological target: T3, Insulin receptor substrate 1 (Homo sapiens, UniProt P35568); experiment: Binding affinity to recombinant human IRS1 PH domain expressed in Escherichia coli BL21 (DE3) by surface plasmon resonance assay
T3 sequence (P35568 whole entry): T2 sequence (whole entry)

MCF-10A [4] = experiment: Cytotoxicity in human MCF10A cells assessed as reduction in cell viability incubated for 4 days by MTT assay; format: cell-based; conditions: 96 h
[5] = biological target: T4, GRB2-associated-binding protein 1 (Homo sapiens) (UniProt Q13480); experiment: Inhibition of HGF-stimulated GAB1 Y627 phosphorylation in human T47D cells at 20 uM pre-incubated for 4 hrs before stimulation with HGF for 20 mins; format: cell-based
T4 sequence (whole entry): T1 sequence (Q13480 whole entry)

MDA-MB-231 = experiment: Cytotoxicity in human MDA-MB-231 cells assessed as reduction in cell viability incubated for 4 days by MTT assay; format: functional, cell-based
T47D = experiment: Cytotoxicity in human T47D cells assessed as reduction in cell viability incubated for 4 days by MTT assay; format: functional, cell-based
MCF-10A [6] = experiment: Cytotoxicity in human MCF10A cells assessed as reduction in cell viability at 100 uM incubated for 4 days by MTT assay; format: cell-based; conditions: 96 h

Compound	Activity [2] [%]	Kd ([3]; read-out: Kd) [nM]	Kd [1]	Kd [3]	further results
CS(=O)(=O)CCSc1ncccc1C(=O)Sc1ccc(Cl)cc1Cl	79.7	1600			Kd ([1]; read-out: Kd): 42300 nM; Activity (MCF-10A [4]): Non-Toxic
Cn1c(Cc2ccsc2)nnc1SCC(=O)Nc1cc(Cl)cc(Cl)c1	84.8		Not Active	Not Active	IC50 (MDA-MB-231): Not Active; IC50 (T47D): Not Active
Cc1nc(-c2ccc(S(=O)(=O)N3CCN(C4c5ccccc5-c5ccccc54)CC3)s2)cs1	98.7				
O=c1[nH]nc(SCc2csc(-c3ccccc3)n2)n1Cc1ccco1	40.7			Not Active	Kd ([1]; read-out: Kd): 2200 nM; Activity (MCF-10A [4]): Non-Toxic
O=S(=O)(NCc1csc(-c2cccs2)n1)c1ccc(N2CCOCC2)nc1	101	16200	Not Active		IC50 (MDA-MB-231): Not Active
Cc1onc(-c2ccccc2)c1-c1nc(CSc2nc3ccccc3[nH]2)no1	31.1	120	Not Active		
CS(=O)(=NS(=O)(=O)c1ccc(-c2ccccn2)s1)c1ccc(Cl)cc1 (stereo unspecified)	102		Not Active	Not Active	IC50 (MDA-MB-231): Not Active; IC50 (T47D): Not Active
O=S(=O)(NCc1csc2ccc(Cl)cc12)c1cc(S(=O)(=O)c2ccccc2)cs1	46.5			Not Active	Activity (MCF-10A [4]): Non-Toxic
CCCCCCCCCCCCc1ccc(S(=O)(=O)Nc2nncs2)cc1	61.3				Kd ([1]; read-out: Kd): 1330 nM
COc1cc(NS(=O)(=O)c2ccc(NS(=O)(=O)c3c(C)noc3C)cc2)nc(OC)n1	91.7		Not Active	Not Active	Activity (MCF-10A [6]): Non-Toxic; IC50 (MDA-MB-231): Not Active; IC50 (T47D): Not Active
O=C(O)c1ccccc1C(=O)Nc1ccccc1SCCS(=O)(=O)c1ccc(Cl)cc1	75.6		Not Active	Not Active	Activity (MCF-10A [6]): Non-Toxic; IC50 (MDA-MB-231): Not Active
Cc1nnc(NS(=O)(=O)c2ccc(NS(=O)(=O)c3ccc4ccccc4c3)cc2)s1	89.9		Not Active	Not Active	
Cn1cnc(S(=O)(=O)Nc2ccccc2SCCS(=O)(=O)c2ccc(Cl)cc2)c1	83.2	16400			Kd ([1]; read-out: Kd): 2100 nM
Cc1cc2ncc(-c3cnc(SCCS(=O)(=O)c4ccc(Cl)cc4)nc3)c(C)n2n1	98.2		Not Active	Not Active	

Now from value to molecule, other results behind:

Activity [2] [%]	Kd ([3]; read-out: Kd) [nM]	Kd [1]	Kd [3]	Compound	further results
116				CCCCCCCCCCCCCCCCCCOC[C@H](COP(=O)(O)O[C@H]1[C@H](O)[C@@H](O)[C@H](O)C[C@H]1O)OC	inhibition [5]: 72%
69	50			CCCCCCCCCCCCc1ccc(S(=O)(=O)Nc2nnc(CC(=O)O)s2)cc1	
60.6	150			CCCCCCCCCCCCc1ccc(S(=O)(=O)Nc2nnc(CC(=O)OCC)s2)cc1	Kd ([1]; read-out: Kd): 900 nM; inhibition [5]: 96%; Activity (MCF-10A [4]): Non-Toxic
64.4				CCc1ccc(C(=O)OC)cc1CSc1nnc(-c2ccc(C(F)(F)F)cc2)n1Cc1ccoc1	
115			Not Active	CCCCCCCCCCCCc1ccc(S(=O)(=O)Nc2nnc(S(N)(=O)=O)s2)cc1	
78.4	50			CCCCCCCCCCCCc1ccc(S(=O)(=O)Nc2nnc(C(=O)OCC)s2)cc1	Kd ([1]; read-out: Kd): 680 nM; inhibition [5]: 82%; Activity (MCF-10A [4]): Non-Toxic
100		Not Active	Not Active	Cc1noc(C)c1NC(=O)NCc1csc(-c2cccs2)n1	
